Measurements from patent US20070255356A1, “PHOTODI[…] DEVICES AND METHODS” (Ondine International, Ltd., priority 2006, published 2007).

Experiments:
[1] = tested on: otitis externa; assay: photodisinfection of otitis externa treatment site (Examples V to VII); format: in vivo
Procedure: A photosensitizing composition comprising of methylene blue at a concentration of about 0.1 wt % is applied to the otitis externa treatment site. Light at a wavelength range from about 650 nm to about 680 nm is applied to the photosensitizing composition located within the otitis externa treatment site for a period from about 6 minutes to about 10 minutes using a laser with power at about 80 mW. The otitis externa was ameliorated.
A photosensitizing composition comprising of methylene blue at a concentration range of from about 0.001 wt % to about 0.1 wt % is applied to the otitis externa treatment site. Light at a wavelength range from about 650 nm to about 680 nm is applied to the photosensitizing composition located within the treatment site for a period from about 1 minute to about 20 minutes using a laser with power at a range from about 50 mW to about 300 mW. The otitis externa was ameliorated.
A photosensitizing composition comprising of toluidine blue at a concentration range of from about 0.001% wt % to about 0.1 wt % is applied to the otitis externa treatment site. Light at a wavelength range from about 620 nm to about 650 nm is applied to the photosensitizing composition located within the otitis externa treatment site for a period from about 1 minute to about 20 minutes using a laser with power at a range from about 50 mW to about 300 mW. The otitis externa was ameliorated.
For Examples V to VII, it was shown that there is a general inverse relationship between (1) the photosensitizer concentration and (2) the photodisinfection treatment time and/or the amount of power required for the light source. For example, higher concentration of photosensitizer requires less treatment time and/or lower light source power. Conversely, lower concentration of photosensitizer requires longer treatment time and/or higher light source power. Also, less treatment time requires higher concentration of photosensitizer and/or higher light source power.

[2] = tested on: E. coli; assay: photodisinfection of E. coli biofilms in vitro (Periowave laser); format: cell-based, Escherichia coli
Excerpt: (§1) Photodisinfection treatments using methods contemplated by the present invention have been tested against MRSA, Escherichia coli (E. coli), and Enterococcus fecalis (E. fecalis) in vitro and reached high levels of disinfection in within seconds to one minute. Photosensitizing composition comprising of methylene blue at various concentrations ranging from about 0.005 wt % to 0.1 wt % was applied to biofilms of MRSA, E. coli and E. fecalis for about ten seconds. These biofilms were then illuminated by a laser light system at a wavelength of about 665 nm to about 675 nm for a period from about 0 seconds to about 60 seconds (e.g., accumulated energy level of about 0 J/cm^2 to about 9 J/cm^2). The laser light system used was the Periowave™ system which includes a low-intensity laser with power at about 240 mW and the optical probe described in PCT Patent Publication No. WO2006115761.

[3] = tested on: MRSA; assay: SEM evaluation of MRSA biofilms after photodisinfection; format: cell-based, Methicillin-resistant Staphylococcus aureus; details: about 0.1 wt % methylene blue, about 10 seconds contact, 665-675 nm, about 30 seconds
Procedure: (§2) Biofilms heavily colonized with one to four layers of MRSA organisms were contacted with a photosensitizing composition comprising methylene blue at a concentration of about 0.1 wt % for about 10 seconds and then illuminated at a wavelength of about 665 nm to about 675 nm for a period from about 30 seconds using the Periowave™ laser. Thereafter, these biofilms and the controlled MRSA biofilms (e.g., no photodisinfection treatment) were incubated overnight in 0.9 wt % saline and then fixed in 10 wt % Formalin for scanning electron microscope (SEM) evaluation.

[4] = tested on: E. fecalis; assay: photodisinfection of E. fecalis biofilms in vitro (Periowave laser); format: cell-based, Enterococcus fecalis; details: methylene blue and a low power laser
Excerpt: as §1

[5] = tested on: MRSA; assay: photodisinfection of MRSA biofilms in vitro (Periowave laser); format: cell-based, Methicillin-resistant Staphylococcus aureus
Excerpt: as §1

[6] = tested on: otitis externa; assay: study on patients suffering otitis externa (photodisinfection, Periowave laser); format: in vivo, human; details: about 0.01 wt % methylene blue by cotton swab, 665-675 nm, about 3 to 5 minutes (3-5 one minute cycles); many patients
Procedure: A study was conducted on patients suffering otitis externa. During the study, a photosensitizing composition comprising of methylene blue at a concentration of about 0.01 wt % was applied using a cotton swab to the treatment site as shown in FIG. 37. Thereafter and referring to FIGS. 38-39, light at a wavelength range from about 665 nm to about 675 nm was applied to the photosensitizing composition located within the treatment site 64 for a period from about 3 minutes to about 5 minutes (3-5 repetitive one minute cycles) using the Periowave™ laser light system.

[7] = tested on: E. coli; assay: SEM evaluation of E. coli biofilms after photodisinfection; format: cell-based, Escherichia coli; details: about 0.1 wt % methylene blue, about 10 seconds contact, 665-675 nm, about 30 seconds
Procedure: as §2, with “to three” for “to four”, “of Escherichia coli (E. coli)” for “of MRSA”, “controlled E. coli” for “controlled MRSA”, “incubated for three hours” for “incubated overnight”, “in 0.9%” for “in 0.9 wt %”, “in 10%” for “in 10 wt %”

[8] = at least 0.02 wt % methylene blue, about ten seconds contact, about 665-675 nm laser about 240 mW for at least 15 seconds (at least 2.25 J/cm^2)
[9] = methylene blue and a low power laser

| SMILES | outcome of otitis externa ([1]; Example V: about 0.1 wt %, 650-680 nm, about 6 to 10 minutes, laser about 80 mW) | outcome of otitis externa ([1]; Example VI: about 0.001 to 0.1 wt %, 650-680 nm, about 1 to 20 minutes, laser about 50 to 300 mW) | reduction of E. coli [2, 8] | elimination of E. coli by photodisinfection [2, 9] | reduction of MRSA in SEM photograph (FIG. 34 vs FIG. 33) [3] | elimination of E. Fecalis by photodisinfection [4] | reduction of MRSA [5, 8] | elimination of MRSA by photodisinfection [5, 9] | outcome of otitis externa [6] | reduction of E. coli in SEM photograph (FIG. 36 vs FIG. 35) [7] | outcome of otitis externa ([1]; Example VII: about 0.001 to 0.1 wt %, 620-650 nm, about 1 to 20 minutes, laser about 50 to 300 mW) |
| --- | --- | --- | --- | --- | --- | --- | --- | --- | --- | --- | --- |
| CN(C)c1ccc2nc3ccc(=[N+](C)C)cc-3sc2c1 [methylene blue] | ameliorated | ameliorated | at least three | effectively eliminated | substantial reduction of MRSA | effectively eliminated | at least three | effectively eliminated | ameliorated | substantial reduction of E. coli |  |
| Cc1cc2nc3ccc(N(C)C)cc3[s+]c2cc1N.[Cl-] [toluidine blue] |  |  |  |  |  |  |  |  |  |  | ameliorated |
